Holding throughout (test): NCI anticancer screen, dose series, 48 h
Test [1] has as its system A549 NSCLC.
In test [2] the test system is HCT-116 colon.
The test system of test [3] is IGROV1 ovarian.
Test [4] has as its system MALME-3M melanoma.
For test [5], the system named is NCI-H460 lung.
The subject of test [6] is OVCAR-5 ovarian.
Test [7] concerns RPMI-8226 leukemia.
Test [8] relates to SK-MEL-5 melanoma.
Test [9] has as its system SNB-19 CNS.
Test [10] concerns UACC-257 melanoma.

Several values for one entry are separate records, joined by “and”; a condition that tells them apart may be missing. Equal values may be shown once.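 These data come from cells grown in 96-well plates and exposed to compound for 48 hours at five concentrations. GI50: concentration for 50% inhibition of growth. TGI marks complete inhibition of growth.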

For `COc1ccccc1Nc1cc(O)c2c(=O)cc(-c3ccccc3)oc2c1`, the GI50 is 5160 nM in test [1]; 3310 nM in test [2]; 2980 nM in test [3]; 2130 nM in test [4]; 3370 nM in [5]; 4820 nM in test [6]. Further, the GI50 in test [7] is 4510 nM; in [8] it was 3000 nM; in test [9], 2990 nM; in test [10], 6720 nM. The TGI in test [1] was greater than 100000 nM; in test [2], greater than 100000 nM; in test [3], 18500 nM; in test [4], 11900 nM; in test [5] it was 12000 nM; in test [6], 27300 nM. The TGI in [7] was greater than 100000 nM; in test [8], 9580 nM; in [9], 15700 nM; in test [10], 63500 nM.

For `CN[C@H]1CN(c2ccc3c(=O)c(C(=O)O)cn(-c4nccs4)c3n2)C[C@@H]1OC`, the GI50 in [1] was 511 nM; in test [2], 437 nM; in test [3] it was 353 nM; in [4] it was 516 nM; in [5] it was 133 nM; in [6] it was 2310 nM. Besides, the GI50 is 1080 nM in [7], 831 nM in test [8], 376 nM in test [9] and 1110 nM in test [10]. Also, the TGI was 2760 nM in test [1]; 4580 nM in test [2]; 7150 nM in [3]; 2270 nM in test [4]; 1530 nM in test [5]; 6450 nM in [6]. For the same compound, the TGI is greater than 24000 nM in [7], 2230 nM in test [8], 14200 nM in [9] and 2830 nM in [10].

On to `CNC(=O)c1ccc(N2C(=S)N(c3cnc(C#N)c(C(F)(F)F)c3)C(=O)C23CCC3)cc1F`, for which the GI50 in test [1] was greater than 100000 nM; in [2] it was greater than 95400 nM; in [3], greater than 100000 nM; in [4], 98300 nM; in test [5], greater than 100000 nM; in [6], greater than 100000 nM. For the same compound, the GI50 in [7] was 59300 nM; in test [8] it was greater than 100000 nM; in test [9] it was greater than 100000 nM; in [10], greater than 95000 nM. Moreover, the TGI in test [1], in test [2], in test [3], in test [4], in [5] and in [6] was greater than 100000 nM each time. In addition, the TGI in [7], in test [8], in [9] and in test [10] was greater than 100000 nM in each case.

Regarding `Clc1c(Cl)[n+](Cc2ccc3ccccc3c2)cn1Cc1ccc2ccccc2c1`, the GI50 in [1] is 3320 nM; in [2] it was 1450 nM; in test [3], 1330 nM; in [4] it was 1400 nM; in [5], 1530 nM; in test [6], 1540 nM. Moreover, the GI50 in [7] was 1250 nM; in test [8] it was 1130 nM; in test [9] it was 1320 nM; in test [10], 1740 nM. In addition, the TGI came out at 11700 nM in test [1]; 2870 nM in test [2]; 2930 nM in test [3]; 3150 nM in [4]; 2980 nM in [5]; 3320 nM in test [6]. The TGI in test [7] came out at 3550 nM; in test [8], 2390 nM; in test [9] it was 2700 nM; in [10] it was 3510 nM.

Take `COc1ccc(C2(Cl)c3ccccc3N(c3ccccc3)c3ccccc32)cc1`: the GI50 is 407 nM in test [1]; 770 nM in test [3]; 298 nM in test [4]; 484 nM in [5]; 2190 nM in test [6]; 218 nM in test [7]. Also, the GI50 in [8] was 266 nM; in [9] it was 637 nM; in test [10], 797 nM. For the same compound, the TGI in [1] amounted to 2900 nM; in test [3], 10300 nM; in test [4] it was 1660 nM; in test [5], 1940 nM; in test [6], 7640 nM; in [7], 1360 nM. The TGI in test [8] is 1310 nM; in [9], 2430 nM; in test [10], 3670 nM.

Take `CC1=N/C(=C/c2ccc3c(c2)OCO3)C(=O)O1`: the TGI in test [1], in test [2], in test [3], in test [4], in test [6] and in test [7] was greater than 100000 nM in each case. Besides, the TGI in test [8], in test [9] and in [10] was greater than 100000 nM in each case.

As for `COC(=O)c1cc2c(=O)n(C)c3ccccc3n2c1C(=O)OC`, the TGI in [1], in [3], in [4], in test [5], in [6] and in [7] was greater than 100000 nM each time. The TGI in test [8], in test [9] and in test [10] was greater than 100000 nM throughout.

In the case of `COC(=O)[C@@H]1c2cc3c(c(O)c2[C@@H](OC2OC(C)C(OC)C(C)(OC)C2OC)C[C@]1(C)O)C(=O)c1c(O)cc2c(c1C3=O)O[C@H]1O[C@]2(C)[C@H](O)[C@@H](N(C)C)[C@@H]1O` (stereo not given in full), the TGI was 10300 nM in test [1]; 650 nM and 4740 nM in test [3]; 66.6 nM and 54.5 nM in test [4]; 33.6 nM in test [5]; 55.7 nM in test [7]; 27.8 nM in test [8]. Further, the TGI in test [9] was 11100 nM; in test [10], 63.8 nM and 47.2 nM. Also, the GI50 in test [6] is 65.1 nM; in test [10] it was 12.3 nM.

For the compound `C=CCNC(=O)NCCCCC(NC(C)=O)C(=O)NCc1ccccc1` (stereo not given), the TGI in test [1], in test [3], in test [4], in test [5], in [6] and in test [7] was greater than 100000 nM in each case. The TGI in [8], in test [9] and in [10] was greater than 100000 nM in each case.

For the origin of these results see PubChem BioAssay (NCI).
